Converted amounts (≈) assume the structure as drawn.
Tests used:
[1] = Cytotoxicity in African green monkey Vero cells assessed as reduction in cell viability incubated for 72 hrs by MTT assay; type: cell-based; settings: chlorocebus sabaeus
[2] = test system: Mycobacterium tuberculosis; assay: Antimycobacterial activity against Mycobacterium tuberculosis H37Ra ATCC 25197 assessed as inhibition of bacterial cell growth incubated for 7 days by resazurin microtiter assay; type: functional; settings: H37Ra ATCC 25197, 168 h
[3] = test system: Mycobacterium tuberculosis; assay: Antimycobacterial activity against Mycobacterium tuberculosis H37Rv ATCC 27294 assessed as inhibition of bacterial cell growth incubated for 7 days by resazurin microtiter assay; type: functional; settings: H37Rv ATCC 27294, 168 h
[4] = Selectivity index, ratio of CC50 for African green monkey Vero cells to MIC for antimycobacterial activity against Mycobacterium tuberculosis H37Ra ATCC 25197; type: toxicity; settings: read-out: Selectivity Index

Compound `COC(=O)/C=C1\Nc2ccccc2OC1=O` has a CC50 at 72 h [1] greater than 2.28 mM, an MIC [2] of 18 µM (≈ 3.95 µg/mL) and an MIC [3] of 4.5 µM (≈ 0.986 µg/mL). For the same compound, the selectivity ratio [4] was greater than 125.
With `COC(=O)/C=C1\Nc2cc(Cl)ccc2OC1=O` the CC50 at 72 h [1] was 1.63 mM, the MIC [2] was 63 µM (≈ 16 µg/mL) and the MIC [3] was 31 µM (≈ 7.86 µg/mL). For the same compound, the selectivity ratio [4] was 26.
Work on `COC(=O)/C=C1\Nc2ccc(Cl)cc2OC1=O` yielded a CC50 at 72 h [1] of 1.6 mM, an MIC [2] of 7.9 µM (≈ 2 µg/mL) and an MIC [3] of 3.9 µM (≈ 0.989 µg/mL). It also gave a selectivity ratio [4] of 202.
`O=C1Oc2ccccc2N/C1=C\C(=O)c1ccccc1Cl` showed a CC50 at 72 h [1] of 1.57 mM, an MIC [2] of 13 µM (≈ 3.9 µg/mL) and a selectivity ratio [4] of 118.
Work on `O=C1Nc2ccccc2O/C1=C\c1ccccc1` yielded an MIC [2] of 270 µM (≈ 64.1 µg/mL).
For `O=C1Oc2ccccc2N/C1=C\C(=O)c1ccc(-c2ccccc2)cc1`, the CC50 at 72 h [1] was greater than 0.366 mM, the MIC [2] was 12 µM (≈ 4.1 µg/mL) and the selectivity ratio [4] was greater than 30.
`COC(=O)/C=C1\Nc2ccccc2OC1O` (stereo unspecified) showed an MIC [2] of 289 µM (≈ 63.9 µg/mL).
For `COC(=O)/C=C1\Nc2ncccc2OC1=O`, the MIC [2] was greater than 217 µM.
For `O=C1Oc2ccccc2N/C1=C\C(=O)c1c[nH]c2ccccc12`, the CC50 at 72 h [1] was greater than 1.64 mM, the MIC [2] was 6.5 µM (≈ 1.98 µg/mL) and the MIC [3] was 3.3 µM (≈ 1 µg/mL). For the same compound, the selectivity ratio [4] was greater than 250.
In the case of `O=C1Oc2ccccc2N/C1=C\C(=O)c1cccs1`, the CC50 at 72 h [1] was greater than 1.84 mM, the MIC [2] was 7.3 µM (≈ 1.98 µg/mL) and the MIC [3] was 14.7 µM (≈ 3.99 µg/mL). For the same compound, the selectivity ratio [4] was greater than 250.
For `Cc1ccccc1C(=O)/C=C1\Nc2ccccc2OC1=O`, the CC50 at 72 h [1] was greater than 1.79 mM, the MIC [2] was 14 µM (≈ 3.91 µg/mL) and the selectivity ratio [4] was greater than 125.
Work on `O=C1Nc2ccccc2O/C1=C\c1ccccc1Cl` yielded an MIC [2] of 238 µM (≈ 64.7 µg/mL).
For `Cc1ccc(C(=O)/C=C2\Nc3ccccc3OC2=O)cc1`, the CC50 at 72 h [1] was 1.65 mM, the MIC [2] was 14 µM (≈ 3.91 µg/mL) and the selectivity ratio [4] was 115.
Work on `O=C1Oc2ccccc2N/C1=C\C(=O)N1CCOCC1` yielded a CC50 at 72 h [1] of 1.14 mM, an MIC [2] of 7.3 µM (≈ 2 µg/mL) and an MIC [3] of 7.3 µM (≈ 2 µg/mL). It also gave a selectivity ratio [4] of 155.
With `COC(=O)/C=C1\Nc2cc(-c3ccccc3)ccc2OC1=O` the MIC [2] was 145 µM (≈ 42.8 µg/mL).
In the case of `O=C(NNC(=O)c1ccncc1)C(=O)Nc1ccccc1O`, the CC50 at 72 h [1] was 1.41 mM, the MIC [2] was 0.42 µM (≈ 0.126 µg/mL) and the MIC [3] was 3.3 µM (≈ 0.991 µg/mL). The selectivity ratio [4] was 3380.
Compound `COC(=O)/C=C1/Oc2ccccc2NC1=O` has an MIC [2] of 291 µM (≈ 63.8 µg/mL).
For `O=C1Oc2ccccc2N/C1=C\C(=O)c1ccc(Cl)cc1`, the CC50 at 72 h [1] was 1.25 mM, the MIC [2] was 13 µM (≈ 3.9 µg/mL) and the selectivity ratio [4] was 94.
`O=C(NNC(=O)c1ccncc1)C(=O)Nc1ccc(Cl)cc1O` gave a CC50 at 72 h [1] of 1.17 mM, an MIC [2] of 0.75 µM (≈ 0.251 µg/mL) and an MIC [3] of 3.1 µM (≈ 1.04 µg/mL). For the same compound, the selectivity ratio [4] was 1560.
For `O=C1Oc2ccccc2N/C1=C\C(=O)c1ccccc1`, the CC50 at 72 h [1] was greater than 0.942 mM, the MIC [2] was 15 µM (≈ 3.98 µg/mL) and the selectivity ratio [4] was greater than 62.
For `CN1C(=O)/C(=C/c2ccccc2Cl)Oc2ccccc21`, the MIC [2] was 224 µM (≈ 64 µg/mL).
With `COC(=O)/C=C1\Nc2cc3ccccc3cc2OC1=O` the MIC [2] was greater than 238 µM.
With `O=C1/C(=C/c2ccccc2)Oc2ccccc2N1Cc1ccccc1` the MIC [2] was 196 µM (≈ 64.2 µg/mL).
`O=C1Oc2ccccc2N/C1=C\C(=O)c1ccncc1` showed a CC50 at 72 h [1] greater than 1.88 mM, an MIC [2] of 15 µM (≈ 3.99 µg/mL) and a selectivity ratio [4] greater than 125.
Work on `Cc1cccc(C(=O)/C=C2\Nc3ccccc3OC2=O)c1` yielded a CC50 at 72 h [1] greater than 1.79 mM, an MIC [2] of 14 µM (≈ 3.91 µg/mL) and a selectivity ratio [4] greater than 125.
`COC(=O)CC1Nc2ccccc2OC1=O` (stereo unspecified) gave a CC50 at 72 h [1] of 1.55 mM, an MIC [2] of 36 µM (≈ 7.96 µg/mL) and a selectivity ratio [4] of 43.
For `O=C1/C(=C/c2ccccc2Cl)Oc2ccccc2N1Cc1ccccc1`, the MIC [2] was 177 µM (≈ 64 µg/mL).
Work on `O=C1Oc2ccccc2N/C1=C\C(=O)c1cccc(Cl)c1` yielded a CC50 at 72 h [1] of 1.61 mM, an MIC [2] of 13 µM (≈ 3.9 µg/mL) and a selectivity ratio [4] of 120.
Compound `CN1C(=O)/C(=C/c2ccccc2)Oc2ccccc21` has an MIC [2] of 127 µM (≈ 31.9 µg/mL).
Compound `O=C(NNC(=O)c1ccncc1)C(=O)Nc1cc(Cl)ccc1O` has a CC50 at 72 h [1] of 1.2 mM, an MIC [2] of 0.37 µM (≈ 0.124 µg/mL) and an MIC [3] of 3.1 µM (≈ 1.04 µg/mL). For the same compound, the selectivity ratio [4] was 3320.
Work on `NNC(=O)c1ccncc1` [ISONIAZID] yielded a CC50 at 72 h [1] greater than 7.3 mM, an MIC [2] of 0.91 µM (≈ 0.125 µg/mL) and an MIC [3] of 1.8 µM (≈ 0.247 µg/mL). For the same compound, the selectivity ratio [4] was greater than 8000.

Source: ChEMBL document CHEMBL4433266, “Design, synthesis and antimycobacterial activity of benzoxazinone derivatives and open-ring analogues: Preliminary data and computational analysis” (Bioorg Med Chem Lett, 2019)
